Earlier results, collected in paper PMC10855781 (International Journal of Molecular Sciences, 2024).
Read-outs that look alike come from different tables or passages of the source.

Columns and labels:
[1] = tested on: PANC-1 tumor; conditions: ref [110]
Experimental: The in vivo tumor growth inhibitory effect of the conjugate and free Dau was investigated on s.c.-developed PANC-1 tumor-bearing SCID female mice. The free drug was applied once a week at a maximum tolerated dose of 1 mg/kg body weight (three treatments), while the conjugate was administered, on average, three times per a week either at a 2 mg/kg or 10 mg/kg dose, calculated as per the Dau content (eighteen treatments altogether). The first treatment was given on day 10 after tumor inoculation. After the third treatment with free Dau, the animals lost 20% of their weight; therefore, the mice i ...

[2] = tested on: mice
Text: The most widely studied oxime-linked daunomycin–peptide conjugates were GnRH-III-based derivatives. GnRH-III (<[…]-NH2, where <E is pyroglutamic acid) was first isolated from sea lamprey and has a very low-level hormonal effect in mammals, but binds to both the human GnRH receptors (GnRH-IR and GnRH-IIR). […] Nevertheless, the results of the in vivo acute and chronic toxicity measureme ...

[3] = tested on: PC-3 human prostatic adenocarcinoma; set-up: method as in PMID 36834815; conditions: s.c. PC-3; i.p. 10 mg Dau-content/kg every fifth day from day 9, five treatments; day 33; Dau 1 mg/kg, terminated day 26; ref [84]
Text: This 14-mer peptide (Glp-[…]NH2), first discovered in the skin of the frog Bombina bombina, is associated with the gastrin-releasing peptide (GRP) as a mammalian counterpart. The bombesin receptor family comprises neuromedin receptor B (NMB-R, or BB1), gastrin-releasing peptide receptor (GRP-R, or BB2) and bombesin receptor subtype 3 (BRS-3, or BB3). Among them, GRP-R has been the most investig ...

[4] = tested on: DNA; conditions: apparent equilibrium binding constant; ref [72]
Text: Figure 2 The equilibrium binding constants of daunomycin (Dau) and its oxime-linked amino acid derivatives to DNA. TEXT PRINTED IN THE PICTURE: Dau: K (x10^5)(M^−1): 11.7 | H-Lys(Dau=Aoa-OH): K (x10^5)(M^−1): 6.8 | Dau=Aoa-Gly-OH: K (x10^5)(M^−1): 6.74 | Dau=Aoa-Tyr-OH: K (x10^5)(M^−1): 4.4 | Dau=Aoa-Leu-OH: K (x10^5)(M^−1): 3.23

[5] = tested on: Human cardiac myocytes (HCM); set-up: key: 0: no cardiotoxicity; +: weak; ++: moderate; +++: strong cardiotoxicity; conditions: long-term (0–72 h) cytotoxic effect, impedimetric; ref [75]
Text: Table 2 Comparative study of cytotoxic effects and cardiotoxicity elicited by selected GnRH-based anthracycline conjugates. | column: Cardiotoxicity || The main drug-related toxic side effect of anthracyclines is cardiotoxicity, leading to cardiomyopathy and heart failure. Comparative experiments to determine the cardiotoxicity of peptide–anthracycline conjugates with different linkages might be informative for the other conjugates with different types of drugs as well. For this purpose, human cardiomyocytes (HCM) and human umbilical vein endothelial cells (HUVEC) were used as models. The long-term (0–72 h) cytotoxic effect of sixteen GnRH-based conjugates containing Dox and Dau was determined by real-time impedimetric sensing using th ...

[6] = tested on: HT-29 human colon cancer; conditions: SCID mice, single i.p. 2.5 mg/kg (4.43 μmol); ref [81]
Experimental: Table 3 In vivo tumor growth inhibition of a few relevant Dau-GnRH-III conjugates. | column: HT-29 ^b s.c. SCID [%] || In another experiment, HT-29 human colon cancer was developed s.c. in immunodeficient SCID mice. Dau and two conjugates (with or without a GFLG spacer between the GnRH-III homing peptide and the payload) were used for the treatment. The first i.p. administrations were performed on day 13 after tumor inoculation. All the mice treated once with 2.5 mg/kg body weight (4.43 μmol) free Dau died within 10 days. In contrast, the conjugates at a dose of 15 mg Dau content/kg body weight (26.6 μmol) that refers to 52 mg/kg [^8Lys(Dau=Aoa)]-GnRH-III and 62.5 mg/kg [^8Lys(Dau=Aoa-GFLG)]-GnRH-III co ...

[7] = tested on: HT-29 tumor; conditions: ref [18]
Experimental: In our group, we synthesized conjugates based on a heptapeptide (VHLGYAT) selected by Zhang et al. and tested them on HT-29 human colon adenocarcinoma. Since sequence modification may result in different oxime-linked Dau-amino acid fragments, a cathepsin B- labile spacer was incorporated to the N-terminal of the homing peptide. From the parent compound (Dau=Aoa-LRRY-VHLGYAT-NH2), the potential positions that can be substituted were selected using Ala-scan. […] Statistical analysis was performed by Mann-Whitney test. *, ** and *** mean significant at p < 0.05, p < 0.01 and p < 0.001, respectively. Adapted with permission from ref. [18]. 2019, Elsevier. TEXT PRINTED IN THE PICTURE: (a) Dau: Tumour weight (g): 16% | (a) Parent: Tumour weight (g): 35% | (a) G/F exchange: Tumour weight (g): 11% | (b) Dau: Liver weight (g): 72% | (b) Parent: Liver weight (g): 101% | (b) G/F exchange: Liver weight (g): 90% | (c) Dau: Prol ...

[8] = tested on: human breast adenocarcinoma (MCF-7); conditions: ref [75]
Text: Table 2 Comparative study of cytotoxic effects and cardiotoxicity elicited by selected GnRH-based anthracycline conjugates. | column: IC50 Values (μM)

[9] = tested on: C26 colon tumor; conditions: (w) tumor weight reduction, day 13; treatments days 4 and 7; conjugates 26.6 μmol/kg (15 mg Dau content), Dau 2 mg/kg; ref [82],[86]
Experimental: Table 3 In vivo tumor growth inhibition of a few relevant Dau-GnRH-III conjugates. | column: C26 orth. […] In the case of the C26 colon tumor-bearing female Balb/c mice, only a 7% reduction in tumor weight was detected on day 13 after the two treatments on days 4 and 7 with [^8Lys(Dau=Aoa)]-GnRH-III, at a 26.6 μmol/kg (15 mg Dau content) dose. […] It is worth ment ...

COc1cccc2c1C(=O)c1c(O)c3c(c(O)c1C2=O)C[C@@](O)(C(C)=O)C[C@@H]3O[C@H]1C[C@H](N)[C@H](O)[C@H](C)O1 [Dau, daunomycin]
decrease in liver weight ([1]; Dau 1 mg/kg once a week, three treatments): 29.1% | body weight loss ([1]; after third treatment, 1 mg/kg once a week, sacrificed day 28): 20% | dose with remarkable toxicity ([2]; healthy mice): > 2 mg/kg | dose with remarkable toxicity ([2]; immunodeficient mice): > 1 mg/kg | tumor volume inhibition [3]: without showing a significant reduction | K, equilibrium binding constant to DNA [4]: 1.17e+06 M⁻¹ | Cardiotoxicity, HCM [5]: +++ | time within which all treated mice died [6]: ≤ 10 days | tumor weight reduction compared to the control group ([7]; conjugates 10 mg/kg Dau content i.p. days 13, 16, 20, 23, 27, end day 30, Dau 1 mg/kg days 13 and 20, sacrificed day 23): 84% | decrease in liver weight vs controls ([7]; same experiment as E56): 28% | IC50 [8]: 400 ± 100 nM | C26 orth. Balb/c tumor growth inhibition (w) [9]: 24.4%
